Test system: mCRPC patients, safety population
Assay: Same clinical study: safety (adverse events, laboratory abnormalities, dose reductions)
Type: in vivo, human
Experimental: For patients in Arm A, cabazitaxel 25 mg/m^2 was administered intravenously over 1 hour every 3 weeks along with oral prednisone 10 mg given daily. Primary prophylactic granulocyte-colony stimulating factor (G-CSF) was required at each cycle for all patients in the cabazitaxel arm
For patients in Arm B, abiraterone acetate was administered orally at 1000 mg once daily along with oral prednisone 5 mg given twice daily or enzalutamide was administered orally at 160 mg once daily continuously. Abiraterone acetate was administered to patients who had received enzalutamide prior to study entry. Enzalutamide was administered to patients who received prior abiraterone acetate.
Cabazitaxel 25 mg/m^2, was administered intravenously over 1 hour every 3 weeks with oral prednisone 10 mg daily. Premedication included an antihistamine, glucocorticoid (dexamethasone 8 mg or equivalent), and histamine 2 receptor antagonist. Antiemetic prophylaxis was administered at physician's discretion. Primary prophylactic granulocyte-colony stimulating factor was required during each cycle of cabazitaxel. Patients received either abiraterone acetate (1000 mg orally once daily and oral prednisone 5 mg twice daily) or enzalutamide (160 mg orally once daily) continuously. A treatment cycle was 3 weeks in both arms. Abiraterone acetate was given to patients who previously received enzalutamide before study entry. Enzalutamide was given to patients who previously received abiraterone acetate.
Up to a maximum of 2 dose reductions was allowed per patient when necessary due to toxicity and according to the table below:
Efficacy analysis used all randomized patients. Stratified log-rank tests were used to analyze time-to-event data. The primary analysis compared radiographic progression-free survival between the two treatment groups using a stratified log-rank test. Survival curves were generated using Kaplan-Meier estimates. Hazard ratios and associated 95% confidence intervals [CI] were estimated using a stratified Cox proportional hazards model. Stratified Cochran-Mantel-Haenszel chi-square tests were used to analyze categorical data. Descriptive statistics were used to summarize patient characteristics. The safety population (randomized patients who received at least one dose of study treatment) was used for all safety analyses.

[1] = human, in vivo, listed as cabazitaxel

CO[C@H]1C(=O)[C@]2(C)[C@@H](OC)C[C@H]3OC[C@@]3(OC(C)=O)[C@H]2[C@H](OC(=O)c2ccccc2)[C@]2(O)C[C@H](OC(=O)[C@H](O)[C@@H](NC(=O)OC(C)(C)C)c3ccccc3)C(C)=C1C2(C)C [Cabazitaxel, 4α-acetoxy-2α-benzoyloxy-5β,20-epoxy-1p-hydroxy-7β,10β-dimethoxy-9-oxo-11-taxen-13α-yl (2R,3S)-3-tert-butoxycarbonylamino-2-hydroxy-3-phenylpropionate]
Grade ≥3 neutropenia, measured at nadir by blood test: 55 patients
Anemia (laboratory abnormality) (All grades): (99.2) %
Constipation (All grades): 19 n
Hematuria (All grades): 19 n
Hypokalemia (laboratory abnormality) (All grades): (12.0) %
Leukopenia (laboratory abnormality) (All grades): (74.4) %
Thrombocytopenia (laboratory abnormality) (All grades): (40.8) %
Alopecia (Grade ≥3): 0 n
Anemia (laboratory abnormality) (Grade ≥3): (8.0) %
Arthralgia (Grade ≥3): 0 n
Asthenia/fatigue (Grade ≥3): 4.0%
Bladder and urethral symptoms (Grade ≥3): 0 n
Cardiac disorders (Grade ≥3): 0.8%
Constipation (Grade ≥3): 0 n
Diarrhea (Grade ≥3): 3.2%
Dysgeusia (Grade ≥3): 0 n
Dyspnea (Grade ≥3): 0 n
Febrile neutropenia (Grade ≥3): 3.2%
Hypokalemia (laboratory abnormality) (Grade ≥3): (0.8) %
Leukopenia (laboratory abnormality) (Grade ≥3): (32.0) %
Musculoskeletal pain/discomfort (Grade ≥3): 1.6%
Nausea/vomiting (Grade ≥3): 0 n
Peripheral edema (Grade ≥3): 0 n
Peripheral neuropathy (Grade ≥3): 3.2%
Psychiatric disorders (Grade ≥3): 0 n
Renal disorders (Grade ≥3): 3.2%
Spinal cord and nerve root disorders (Grade ≥3): 2.4%
Stomatitis (Grade ≥3): 0 n
Thrombocytopenia (laboratory abnormality) (Grade ≥3): (3.2) %
Weight decreased (Grade ≥3): 0 n
Grade 5 adverse events related to bronchial aspiration (human, in vivo): one
Grade 5 adverse events related to general health deterioration due to progressive disease (human, in vivo): two
Grade 5 adverse events related to head injury (human, in vivo): one
Grade 5 adverse events related to infections (human, in vivo): two
Grade 5 adverse events related to spinal cord compression (human, in vivo): one
Nail disorders (human, in vivo): no nail disorders were reported
Any adverse event leading to permanent treatment discontinuation [1]: 19.8%
Any adverse events [1]: 98.4%
Any grade ≥3 adverse events [1]: 56.3%
Any serious adverse events [1]: 38.9%
Grade ≥3 adverse events occurring more frequently in patients ≥70 years of age (≥70 vs <70 years): asthenia, diarrhea and febrile neutropenia

Source: patent publication US20210244704A1, “Cabazitaxel in mCRPC Patients Previously Treated with Docetaxel and Who Failed a Prior androgen signaling targeted inhibitor Agent” (SANOFI MATURE IP, priority 2019, published 2021)
